According to patent US20190315711A1 (eXIthera Pharmaceuticals, Inc., priority 2016, published 2019):

Assays:
Thrombin = molecular target: T1, Thrombin (Homo sapiens, UniProt P00734); assay: Dose response assay for protease inhibitors: thrombin; format: biochemical; conditions: ratio versus Factor XIa
T1 construct: Thrombin; 0.2 μM in 50% glycerol (7.34 μg/mL)
Protocol: (§1) • Assay buffer: 20 mM Hepes, pH 7.4; 150 mM NaCl; 0.02% Tween 20 • Compounds: 10 mM stocks in DMSO • Substrate: 20 mM Glp-Pro-Arg-AMC, 25 mg/2.3 mL H2O (store at +4° C.) [Factor XIa, thrombin, and trypsin] • 20 mM Pro-Phe-Arg-AMC (Bachem I-1295), 25 mg/2.2 mL H2O or Boc-Leu-Gly-Arg-AMC (Bachem I-1105), 25 mg/2.07 mL H2O (store at +4° C.) [Factor Xa] • Enzyme: Factor XIa; 0.25 M in 50% glycerol (20 μg/mL) • Trypsin; 0.2 μM in 50% glycerol (4.8 μg/mL) • Thrombin; 0.2 μM in 50% glycerol (7.34 μg/mL) • Factor Xa; 0.2 μM in 50% glycerol (9.2 μg/mL)
(§2) • 1. Dilute the substrate to 100 μM in assay buffer (30 μL/6 mL). The enzyme is diluted to 0.5 nM just prior to use (12 L/6 mL for Factor XIa; 15 μL/6 mL for all of the rest.) • 2. Pipette 50 μL of substrate into each well of the 96 well (12×8) microtiter plate. (Column 1 is used as the 100% activity control and receives no compound, and Column 12 is the blank and receives no enzyme.) Add an additional 46 μL to column 2. • 3. Pipette 4 μL of each compound into the appropriate well in column 2 of the plate (unknowns assayed in triplicate, standard assayed in duplicate). The final compound concentration will be 1/50th of the stock. • 4. Serially two-fold dilute the compound by mixing the sample in column 2, removing 50 μL to the next well (column 3), mix and remove to column 4, etc. until column 11. After mixing column 11, remove 50 μL and discard. • 5. Pipette 50 μL of buffer into column 12. Initiate the reaction by adding 50 μL of enzyme solution to each well of columns 1-11 as rapidly as possible. • 6. Read the plate in a spectrophotometer (SpectraMax) at 30° C., wherein each well is measured every 60 s for 30 min. For Factor Xa assays, each well is measured every 1 min for a total of 60 min. • 7. For Factor XIa assays, the compounds are assayed, in duplicate, at 3 different starting concentrations, 20, 2, and 0.2 μM; 1:10, 1:100, and 1:1000 dilution of 10 mM stock or at 2, 0.2, and 0.02 μM; 1:100, 1:1000, and 1:10,000 dilution of 10 mM stock. Data for each concentration are combined for graphing and data fitting. • 8. Data can be used both for estimation of IC50 and for estimation of Kon.

Trypsin = molecular target: T2, Trypsin (Bos taurus, UniProt P00760); assay: Dose response assay for protease inhibitors: trypsin; format: biochemical; conditions: ratio versus Factor XIa
T2 construct: gene PRSS1
T2 sequence (P00760 24-246): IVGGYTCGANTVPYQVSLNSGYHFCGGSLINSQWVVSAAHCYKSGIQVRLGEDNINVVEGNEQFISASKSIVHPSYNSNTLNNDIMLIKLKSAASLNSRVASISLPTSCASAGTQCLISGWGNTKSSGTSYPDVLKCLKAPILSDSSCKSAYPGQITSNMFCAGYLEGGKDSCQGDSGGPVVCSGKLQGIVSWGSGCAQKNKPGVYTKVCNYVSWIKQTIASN
Protocol: as §1, §2

human Factor XIa = human Factor XIa (Homo sapiens, UniProt P03951); assay: Factor XIa enzyme inhibition assay (dose response, fluorogenic AMC substrate); format: biochemical; design: Enzyme: Factor XIa; conditions: purified enzyme; substrate 50 μM, enzyme 0.25 nM; read-out: hFXIa IC50
Sequence of human Factor XIa (P03951 388-625 limits assumed): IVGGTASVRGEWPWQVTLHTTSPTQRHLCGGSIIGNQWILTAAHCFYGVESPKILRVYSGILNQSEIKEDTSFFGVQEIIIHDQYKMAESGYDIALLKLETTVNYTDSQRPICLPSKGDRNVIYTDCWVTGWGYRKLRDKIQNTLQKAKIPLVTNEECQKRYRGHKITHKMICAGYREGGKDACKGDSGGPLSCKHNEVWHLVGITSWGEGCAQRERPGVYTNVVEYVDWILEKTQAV
Sequence of human Factor XIa (P03951 19-387 partner limits assumed): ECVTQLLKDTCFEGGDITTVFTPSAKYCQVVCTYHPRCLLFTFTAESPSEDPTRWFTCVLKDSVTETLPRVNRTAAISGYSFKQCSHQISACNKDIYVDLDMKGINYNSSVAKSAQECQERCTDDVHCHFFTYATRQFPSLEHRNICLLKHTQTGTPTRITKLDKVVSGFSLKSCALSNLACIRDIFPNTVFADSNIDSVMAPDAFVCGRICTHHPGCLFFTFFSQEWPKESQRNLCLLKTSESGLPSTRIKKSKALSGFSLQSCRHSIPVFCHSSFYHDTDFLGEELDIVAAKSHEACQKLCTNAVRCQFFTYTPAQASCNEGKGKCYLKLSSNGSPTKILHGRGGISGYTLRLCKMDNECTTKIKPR
Protocol: as §1, §2
Potential inhibitors of Factor XIa were evaluated using the following assay.
PyroGlu-Pro-Arg-7-methylaminocourin (AMC), available from CPC Scientific, Inc., is based on the substrate pyro-Glu-Pro-Arg-pNA (S-2366), available from Diapharma Group, Inc. (Columbus, Ohio), wherein the p-nitroanaline group is replaced with 7-methylaminocoumarin (AMC).
The final concentration of the substrate in the assay was 50 μM, and the final concentration of the enzyme was 0.25 nM. Inhibitors were tested by serial dilution over an appropriate range to yield a dose response curve for determination of the inhibitors' IC50 value. The assay mixture was read every minute for 30 minutes in order to generate progress curves. The plates were read in a Spectramax m5 Multimode Plate Reader (Molecular Devices LLC, Sunnyvale, Calif.). Dose response curves were fit to Equation 1 below in which A is the maximum inhibition, B is the minimum inhibition, C is the IC50, and D is the Hill coefficient.
Y=[(A−B)/(1+(X/C)^D)]+B (Equation 1)

Factor Xa = molecular target: T3, Factor Xa (Homo sapiens, UniProt P00742); assay: Dose response assay for protease inhibitors: Factor Xa; format: biochemical; conditions: ratio versus Factor XIa
T3 construct: Factor Xa; 0.2 μM in 50% glycerol (9.2 μg/mL)
T3 sequence (P00742 235-488 limits assumed): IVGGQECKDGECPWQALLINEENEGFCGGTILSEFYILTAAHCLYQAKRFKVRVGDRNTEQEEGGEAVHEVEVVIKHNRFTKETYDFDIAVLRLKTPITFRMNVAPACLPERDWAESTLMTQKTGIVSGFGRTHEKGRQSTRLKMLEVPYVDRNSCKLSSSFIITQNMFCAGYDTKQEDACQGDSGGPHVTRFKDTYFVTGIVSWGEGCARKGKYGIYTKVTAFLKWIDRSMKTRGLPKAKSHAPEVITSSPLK
T3 sequence (P00742 41-179 partner limits assumed): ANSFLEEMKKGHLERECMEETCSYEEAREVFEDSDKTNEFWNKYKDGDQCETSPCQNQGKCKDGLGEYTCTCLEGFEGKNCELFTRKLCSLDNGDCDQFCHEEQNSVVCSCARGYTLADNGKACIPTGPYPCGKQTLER
Protocol: as §1, §2

[1] = Caco-2 cell permeability assay (A-B and B-A); format: in vitro ADME; conditions: human; for Papp A→B at 60 min, 10 μM: A-B direction; for Papp B→A at 40 min, 10 μM: B-A direction
Protocol: The following procedure was used to determine the ability of a test compound to cross Caco-2 cells (human intestinal epithelial cells derived from a colorectal adenocarcinoma). The cells were seeded at 1×10^5 cells/cm^2 in 96-well Multiscreen™ plates (Millipore). Permeability assays were performed with the cells at days 21-25 post-seeding. Cells are typically used for 15 consecutive passages in culture.
This assay can be performed in either the apical to basolateral (A−B) or basolateral to apical (B−A) direction. The test compound was prepared at 10 μM in HBSS-MES (pH 6.5) or HBSS-HEPES (pH 7.4) with a final DMSO concentration of 1%. The working solution was then centrifuged and the supernatant added to the donor side. The assay plate was incubated at 37° C. with gentle shaking for 60 min or 40 min for the A−B or B−A assay, respectively. Samples were aliquoted from the donor side at time zero and the end point, and from the receiver side at the end point.
Reference compounds, propranolol (highly permeable), labetalol (moderately permeable), ranitidine (poorly permeable), and colchicine (P-glycoprotein substrate) were included in each assay.
Samples are analyzed by HPLC-MS/MS using selected reaction monitoring. The HPLC system consists of a binary LC pump with autosampler, a C-18 column, and a gradient.
The apparent permeability coefficient (Papp) of the test compound (Equation 2) and its recovery (Equation 3) are calculated as follows: […]
wherein A is the surface area of the cell monolayer (0.11 cm^2), C is concentration of the test compound expressed as peak area, D denotes donor, and R is receiver. “0”, “mid,” and “end” denote time at zero, mid-point, and end of the incubation, respectively. At is the incubation time. V is the volume of the donor or receiver.
This is most likely due to non-specific binding or degradation.

SMILES	Ratio: Thrombin/FXIa (Thrombin)	Ratio: Trypsin/FXIa (Trypsin)	IC50 (human Factor XIa)	FXa/FXIa (selectivity ratio) (Factor Xa)	Papp A→B at 60 min, 10 μM [1]	Papp B→A at 40 min, 10 μM [1]
CC[C@@H](NC(=O)N1C(=O)[C@H](Cc2ccnc(N)c2)[C@H]1C(=O)N(C)c1cccc(F)c1)C1CCCCC1 [Compound 29]	H (“H” indicates 101-1000)	G (“G” indicates 1-100)	< 10 nM	I (“I” indicates >500)	–	–
CC[C@@H](NC(=O)N1C(=O)[C@H](Cc2ccnc(N)c2)[C@H]1C(=O)N(CC)c1ccccc1)C1CCCCC1 [Compound 31]	H (“H” indicates 101-1000)	G (“G” indicates 1-100)	< 10 nM	I (“I” indicates >500)	–	–
CC(C)[C@@H](NC(=O)N1C(=O)[C@H](Cc2ccnc(N)c2)[C@H]1C(=O)N(C)c1ccccc1)C1CCCCC1 [Compound 35]	H (“H” indicates 101-1000)	G (“G” indicates 1-100)	< 10 nM	I (“I” indicates >500)	–	–
CCN(C(=O)[C@@H]1[C@@H](Cc2ccnc(N)c2)C(=O)N1C(=O)N[C@@H](C1CCCCC1)C(F)(F)F)c1ncccn1 [Compound 38]	–	–	< 10 nM	–	≤ 10 ×10⁻⁶ cm/s	≤ 10 ×10⁻⁶ cm/s
CC[C@@H](NC(=O)N1C(=O)[C@H](Cc2ccnc(N)c2)[C@H]1C(=O)N(C)c1ccccc1)c1ccccc1 [Compound 40]	H (“H” indicates 101-1000)	G (“G” indicates 1-100)	< 10 nM	H (“H” indicates 101-1000)	–	–
CC[C@@H](NC(=O)N1C(=O)[C@H](Cc2ccnc(N)c2)[C@H]1C(=O)N(C)c1cc(Cl)cc(Cl)c1)C1CCCCC1 [Compound 51]	–	–	< 10 nM	–	≤ 10 ×10⁻⁶ cm/s	≤ 10 ×10⁻⁶ cm/s
CCN(C(=O)[C@@H]1[C@@H](Cc2ccnc(N)c2)C(=O)N1C(=O)N[C@@H](C1CCCCC1)C1CC1)c1ncccn1 [Compound 54]	–	–	< 10 nM	–	11 to 30 ×10⁻⁶ cm/s	≤ 10 ×10⁻⁶ cm/s
CCN(C(=O)[C@@H]1[C@@H](Cc2ccnc(N)c2)C(=O)N1C(=O)N[C@@H](C1CCCCC1)C1CC1)c1ccccc1 [Compound 55]	H (“H” indicates 101-1000)	G (“G” indicates 1-100)	< 10 nM	I (“I” indicates >500)	–	–
CN(C(=O)[C@@H]1[C@@H](Cc2ccncc2)C(=O)N1C(=O)N[C@@H](C1CCCCC1)C1CC1)c1ccncc1 [Compound 64]	H (“H” indicates 101-1000)	H (“H” indicates 101-1000)	10 to 100 nM	H (“H” indicates 101-1000)	–	–
CN(C(=O)[C@@H]1[C@@H](Cc2ccnc(N)c2)C(=O)N1C(=O)N[C@@H](C1CC1)C(F)(F)F)c1ccccc1 [Compound 70]	G (“G” indicates 1-100)	–	10 to 100 nM	I (“I” indicates >500)	11 to 30 ×10⁻⁶ cm/s	31 to 50 ×10⁻⁶ cm/s
CCN(C(=O)[C@@H]1[C@@H](Cc2ccnc(N)c2)C(=O)N1C(=O)N[C@@H](C1CC1)C(F)(F)F)c1ncccn1 [Compound 79]	H (“H” indicates 101-1000)	–	10 to 100 nM	H (“H” indicates 101-1000)	–	–
CC[C@@H](NC(=O)N1C(=O)[C@H](Cc2ccnc(N)c2)[C@H]1C(=O)N(C)c1ccncc1)c1ccccc1C [Compound 96]	–	–	10 to 100 nM	I (“I” indicates >500)	–	–
CC[C@@H](NC(=O)N1C(=O)[C@H](Cc2ccnc(N)c2)[C@H]1C(=O)N(C)c1ccncc1)c1cccc(Br)c1 [Compound 98]	H (“H” indicates 101-1000)	G (“G” indicates 1-100)	< 10 nM	H (“H” indicates 101-1000)	–	–
CC[C@@H](NC(=O)N1C(=O)[C@H](Cc2ccnc(N)c2)[C@H]1C(=O)N(C)c1ccncc1)c1ccc(C)nc1 [Compound 104]	H (“H” indicates 101-1000)	H (“H” indicates 101-1000)	< 10 nM	I (“I” indicates >500)	–	–
CC[C@@H](NC(=O)N1C(=O)[C@H](Cc2ccnc(N)c2)[C@H]1C(=O)N(C)c1ccncc1)c1cc(Cl)ccc1Cl [Compound 112]	H (“H” indicates 101-1000)	G (“G” indicates 1-100)	< 10 nM	H (“H” indicates 101-1000)	–	–
CC[C@@H](NC(=O)N1C(=O)[C@H](Cc2ccnc(N)c2)[C@H]1C(=O)N(C)c1cccc(F)c1)c1cccc(Cl)c1 [Compound 116]	H (“H” indicates 101-1000)	G (“G” indicates 1-100)	< 10 nM	H (“H” indicates 101-1000)	–	–
CC[C@@H](NC(=O)N1C(=O)[C@H](Cc2ccnc(N)c2)[C@H]1C(=O)N(C)c1cccc(C)c1)c1cccc(Cl)c1 [Compound 117]	G (“G” indicates 1-100)	G (“G” indicates 1-100)	< 10 nM	H (“H” indicates 101-1000)	–	–
CC[C@@H](NC(=O)N1C(=O)[C@H](Cc2ccnc(N)c2)[C@H]1C(=O)N(C)c1cccc(Cl)c1)c1cccc(Cl)c1 [Compound 118]	G (“G” indicates 1-100)	G (“G” indicates 1-100)	< 10 nM	H (“H” indicates 101-1000)	–	–
CC[C@@H](NC(=O)N1C(=O)[C@H](Cc2cc(C)nc(N)c2)[C@H]1C(=O)N(C)c1ccccc1)c1ccccc1 [Compound 119]	H (“H” indicates 101-1000)	G (“G” indicates 1-100)	< 10 nM	I (“I” indicates >500)	–	–
